Source: paper PMC2911657 (The Journal of Cell Biology, 2010)
“Also recorded” adds a separate entry of the source. Read-outs that look alike come from different tables or passages of the source. Each block holds one molecule with its values, some of them ahead of it.

Experiments:
[1] = target: human AURORA B1–344–INCENP835–903 complex (Homo sapiens, UniProt Q96GD4); assay: In vitro kinase assay on AURORA B–INCENP complex, substrate histone H3; assay type: biochemical
MPS1 [2] = target: T1, MPS1 (Homo sapiens, UniProt P33981); assay: In vitro kinase assay on MPS1; assay type: biochemical; details: for MPS1 inhibition in vitro: 1 µM
T1 sequence (P33981 1-857): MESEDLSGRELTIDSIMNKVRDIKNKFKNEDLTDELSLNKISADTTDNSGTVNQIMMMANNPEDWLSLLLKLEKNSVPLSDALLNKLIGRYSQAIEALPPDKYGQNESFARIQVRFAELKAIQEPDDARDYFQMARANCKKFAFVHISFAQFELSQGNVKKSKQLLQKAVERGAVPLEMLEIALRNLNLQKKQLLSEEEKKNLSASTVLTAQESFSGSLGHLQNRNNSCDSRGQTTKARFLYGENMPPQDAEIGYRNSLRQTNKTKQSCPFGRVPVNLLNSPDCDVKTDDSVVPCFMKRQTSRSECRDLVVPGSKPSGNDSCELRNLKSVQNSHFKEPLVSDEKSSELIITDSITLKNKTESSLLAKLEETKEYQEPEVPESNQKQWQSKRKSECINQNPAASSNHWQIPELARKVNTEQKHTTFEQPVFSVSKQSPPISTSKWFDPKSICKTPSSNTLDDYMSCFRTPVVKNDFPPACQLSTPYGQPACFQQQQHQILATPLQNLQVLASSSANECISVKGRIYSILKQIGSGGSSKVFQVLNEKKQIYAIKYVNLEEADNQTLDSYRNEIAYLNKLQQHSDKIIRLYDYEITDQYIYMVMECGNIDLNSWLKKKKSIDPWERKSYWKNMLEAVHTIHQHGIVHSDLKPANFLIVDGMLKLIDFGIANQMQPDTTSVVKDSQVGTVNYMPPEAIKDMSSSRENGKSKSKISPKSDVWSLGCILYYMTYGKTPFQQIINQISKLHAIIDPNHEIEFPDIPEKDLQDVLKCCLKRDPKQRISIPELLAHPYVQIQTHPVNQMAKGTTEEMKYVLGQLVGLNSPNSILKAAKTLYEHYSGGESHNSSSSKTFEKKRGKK

HeLa cells [3] = assay: Spindle checkpoint: duration of mitotic arrest, time-lapse video microscopy; assay type: cell-based, human
[4] = tested on: P-S10-H3 (AURORA B substrate); assay: P-S10-H3 levels by Western blotting in mitotic HeLa cell lysates; assay type: cell-based, human
HeLa cells [5] = assay: Cytokinesis, time-lapse experiment; assay type: cell-based, human
HeLa cells [6] = assay: Chromosome congression / alignment, immunofluorescence; assay type: cell-based, human; details: 100 µM
BUB1 = assay: In vitro kinase assay on BUB1; assay type: biochemical, human
[7] = tested on: P-S7–CENP-A (AURORA B substrate); assay: Kinetochore P-S7–CENP-A levels, immunofluorescence; assay type: cell-based, human
MPS1 [8] = target: T1, MPS1; assay: Kinetochore localization of MPS1, immunofluorescence; assay type: cell-based; details: 0.5 µM; nocodazole
[9] = tested on: ROD, ZWILCH, ZW10, SPINDLY, MAD1; assay: Kinetochore localization of RZZ, SPINDLY and MAD1, immunofluorescence; assay type: cell-based, human
MAD2 = details: 100 nM hesperadin, ref Yang et al., 2009, cited from earlier work
CDK1–CYCLIN B = details: 1 µM
HASPIN = details: 1 µM
NEK2A = details: 1 µM
PLK1 = details: 1 µM
PRP4 = details: 1 µM
TAO1 = details: 1 µM
HeLa cells [10] = details: concentrations up to 10 µM; MG132
HeLa cells [11] = details: cold treatment
HeLa cells [12] = tested on: HeLa cells
AURORA B = details: HeLa cells
MAPKs = details: 1 µM; ref D’Alise et al., 2008; cited from earlier work

Chain of human AURORA B1–344–INCENP835–903 complex (Q96GD4 whole entry): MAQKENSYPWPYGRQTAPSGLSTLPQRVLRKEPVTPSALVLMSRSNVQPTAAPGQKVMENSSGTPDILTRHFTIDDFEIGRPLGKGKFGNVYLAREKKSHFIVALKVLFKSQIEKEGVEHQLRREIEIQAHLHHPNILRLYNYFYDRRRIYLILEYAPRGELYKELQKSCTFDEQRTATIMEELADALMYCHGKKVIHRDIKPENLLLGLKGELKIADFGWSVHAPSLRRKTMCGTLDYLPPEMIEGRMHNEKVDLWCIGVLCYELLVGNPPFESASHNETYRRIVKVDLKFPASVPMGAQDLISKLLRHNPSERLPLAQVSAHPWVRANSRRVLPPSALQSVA
Chain of human AURORA B1–344–INCENP835–903 complex (Q9NQS7 835-903 partner limits assumed): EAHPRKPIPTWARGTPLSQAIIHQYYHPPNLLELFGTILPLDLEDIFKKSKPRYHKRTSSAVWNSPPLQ

- IC50 for AURORA B compared with IC50 for MPS1 [1]: significantly lower
- IC50 (MPS1 [2]): ~2.5 µM
SMILES: Oc1c2ccccc2c2c3c(cccc13)N=N2 [SP600125]

SMILES: N#CC(=C(/N)Sc1ccccc1N)/C(C#N)=C(/N)Sc1ccccc1N [U0126]
- effect on duration of the spindle checkpoint (HeLa cells [3]; 10 µM): does not affect the duration of the spindle checkpoint

- MPS1 inhibition in vitro (MPS1 [2]): did not inhibit
SMILES: COc1cc2c(Nc3ccc(NC(=O)c4ccccc4)cc3)ncnc2cc1OCCCN1CCOCC1 [ZM447439]
- concentration inhibiting P-S10-H3 ([4]; Western blotting): ≤ 500 nM
- concentration range in which cytokinesis is impaired (HeLa cells [5]; time-lapse): 0.1 to 0.5 µM

SMILES: Cc1ccc2c(c1)C(=O)C1(O)CCN(c3ccccc3)C1=N2 (stereo not drawn) [blebbistatin]
- effect on chromosome alignment (HeLa cells [6]): did not cause any evident effects; also recorded: does not cause evident perturbations
- ability of mitotic HeLa cells to maintain a nocodazole-mediated arrest (HeLa cells [3]; unpublished data): did not significantly affect

- MPS1 kinetochore staining (MPS1 [8]): prevented kinetochore localization
SMILES: CCS(=O)(=O)Nc1ccc2c(c1)/C(=C(/Nc1ccc(CN3CCCCC3)cc1)c1ccccc1)C(=O)N2 [hesperadin]
- MPS1 inhibition in vitro (MPS1 [2]): failed to observe significant MPS1 (and BUB1) inhibition
- BUB1 inhibition in vitro (BUB1; 1 µM hesperadin): failed to observe significant MPS1 (and BUB1) inhibition
- cells with impaired cytokinesis (HeLa cells [5]; 5–10 nM range): 100%
- P-S7–CENP-A antigen ([7]; 100 nM): invisible
- MAD1 and RZZ complex at kinetochores ([9]; 0.5–1.0 µM, high concentrations of nocodazole, unpublished data): lost from kinetochores
- MAD2 at kinetochores (MAD2; high nocodazole (3.2 µM)): retained on kinetochores
- MAD2 at kinetochores (MAD2; low nocodazole concentrations): absent from kinetochores

- effect on BUB1 kinase activity (BUB1; 1 µM): failed to alter the activity
- effect on CDK1–CYCLIN B kinase activity (CDK1–CYCLIN B): failed to alter the activity
- effect on HASPIN kinase activity (HASPIN): failed to alter the activity
- effect on NEK2A kinase activity (NEK2A): failed to alter the activity
- effect on PLK1 kinase activity (PLK1): failed to alter the activity
- effect on PRP4 kinase activity (PRP4): failed to alter the activity
- effect on TAO1 kinase activity (TAO1): failed to alter the activity
SMILES: c1nc2nc(Nc3ccc(N4CCOCC4)cc3)nc(NC3CCCCC3)c2[nH]1 [reversine]
- effect on P-S10-H3 ([4]; 0.5 µM): no effects
- effect on cytokinesis (HeLa cells [5]; 0.5 µM): does not significantly inhibit
- effect on cytokinesis (HeLa cells [5]; 1 µM): unaffected
- kinetochore levels of P–CENP-A ([7]; up to 5 µM, nocodazole): not influenced; also recorded: unaltered
- spindle checkpoint in the presence of Taxol, STLC or BI2536 (HeLa cells [3]; 500 nM Taxol, 10 µM STLC or BI2536): caused an override of the checkpoint
- kinetochore localization of ROD, ZWILCH, ZW10, SPINDLY and MAD1 ([9]; 0.5 µM reversine, 330 nM nocodazole, MG132): largely evicted from kinetochores
- MAD1 localization to kinetochores ([9]; nocodazole 0.33 or 3.3 µM): failed to localize to kinetochores
- inhibition of spindle bipolarization (HeLa cells [10]): did not inhibit
- inhibition of kinetochore fiber formation (HeLa cells [11]): did not inhibit
- effect on centrosome duplication (HeLa cells [12]): failed to see an effect
- kinetochore localization of AURORA B (AURORA B): unaffected
- inhibition of MAPKs (MAPKs): not significantly inhibited

SMILES: COC[C@H]1OC(=O)c2coc3c2[C@@]1(C)C1=C(C3=O)[C@@H]2CCC(=O)[C@@]2(C)C[C@H]1OC(C)=O [wortmannin]
- effect on duration of the spindle checkpoint (HeLa cells [3]; 100 nM): does not affect the duration of the spindle checkpoint
